These results are taken from patent publication US20230287021A1, “COMPOUNDS, COMPOSITIONS AND METHODS FOR STABILIZING TRANSTHYRETIN AND INHIBITING TRANSTHYRETIN MISFOLDING” (Protego Biopharma, Inc., priority 2020, published 2023).

Molecules are shown by their SMILES.

Data set [1] is described as follows: In vivo rat PK: tafamidis in plasma, CSF and brain. Further details: species or system Male Sprague-Dawley (SD) rats. To be noted: for Tafamidis CSF/Plasma Ratio over 24 hrs (po): po administration of test compound. From the text: For a compound provided herein to be an effective TTR stabilizer drug to halt and/or prevent the ocular and cerebral TTR amyloid deposition TTR amyloidosis, it has to be able to penetrate into the brain and CSF (surrogate for eye penetration) and deliver a sufficient amount of TTR stabilizer to stop TTR dissociation. A pharmacokinetic study in rat was used to evaluate the compounds. Male Sprague-Dawley (SD) rats (200-220 g weight) were acclimated for at least 2 to 3 days before being placed on study. All animals had access to certified rodent diet and water at libitum. Appropriate amount of the test compound was accurately weighed and mixed with appropriate volume of vehicle (such as DMSO/sterile water for iv dosing or 0.5% methylcellulose homogenous suspension or solution for oral administration or as a solution in a mixture NMP/PEG400/solutol/water) to administer a dose of 2, 5 or 10 mg/kg. For IV dosing the test compound was administered via tail vein or indwelling cannula. For oral dosing, the test compound was administered by oral gavage. Blood and CSF samples were collected at selected timepoints. Blood collection was performed from saphenous vein or tail vein of each animal into polypropylene tubes at each timepoint. All blood samples were transferred into EDTA-K2 tubes and centrifuged for 15 minutes at 4° C. for plasma collection. Plasma samples were kept at -80° C. until LC/MSMS analysis. CSF was collected from cisterna magna at each timepoint and quick frozen over dry ice and kept at -80° C. until LC/MSMS analysis. Brains were harvested immediately after the terminal bleeding (~ 24 hrs post dosing). The blood of the brain was perfused with normal saline. The brain was quickly picked and placed into centrifuge tube. The weight of brain samples was recorded. 4-Fold homogenization solution (MeOH/15 mM PBS (1:2)) was added into the tube according to the weighed samples. The brain was homogenized using a Polytron (3 strokes or more until homogenous, each 30 seconds) on wet ice. The samples were quick frozen over dry ice and kept at -80° C. until LC/MSMS analysis. Using a LC-MSMS method for the quantitative determination of test compound in biological matrixes, amount of test compound and active agent were measured in plasma and CSF at selected timepoints post-dosing and in brain at 24 hrs post dosing. Plasma concentration versus time data was analyzed by non-compartmental approaches using the Phoenix WinNonlin 6.3 software program. As reference, an oral dose of 2 mg/kg of tafamidis gave a CSF to plasma ratio over 24 hrs around 0.01 and a brain to plasma ratio at 24 hrs around 0.02.

For data set [2] the following is noted: tafamidis-treated FAP patients, cited from earlier work.
A short description of data set [3]: In vitro rat plasma stability assay, formation of tafamidis. The format is in vitro ADME. To be noted: 37° C., 2 µM test compound. The method, boiled down:
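Compound at 2 µM incubated in rat plasma at 37 °C, sampled at 0, 10, 30, 60, 120 min or 0, 60, 120, 180, 240 min. Protein precipitated, supernatant analyzed by LC-MS/MS, and percentage formation of tafamidis calculated per time point.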

A short description of data set [4]: In vitro rat liver S9 stability assay, formation of tafamidis. It is filed as in vitro ADME. To be noted: rat liver S9, 37° C., 1 µM test compound. Here is the method:
The test compound was added to liver S9 and incubated at 37° C. in a water bath at a concentration of 1 µM. At each time point (0, 5, 10, 20, 30 and 60 min), stop solution (tolbutamide plus labetalol) was added to precipitate protein and mixed thoroughly. After centrifugation, an aliquot of supernatant was analyzed by LC-MS/MS. The percentage of formation of active agent was calculated at each time point.

On to `O=C(O)c1ccc2nc(-c3cc(Cl)cc(Cl)c3)oc2c1` [tafamidis], for which the Kp in data set [1] (male, Sprague-Dawley, CSF and plasma, oral dose of 2 mg/kg of tafamidis, reference, read-out: CSF to plasma ratio over 24 hrs) was ~0.01. Besides, the Kp at 24 h in data set [1] (male, Sprague-Dawley, brain and plasma, oral dose of 2 mg/kg of tafamidis, reference, read-out: brain to plasma ratio at 24 hrs) was ~0.02. Besides, the “tafamidis level in CSF relative to that in plasma” value in data set [2] (CSF) is reported as 2%. Also, the “tafamidis/TTR stoichiometric ratio in plasma” value in data set [2] (plasma) is recorded as 2.4. In addition, in data set [2] (vitreous and CSF), the “tafamidis/TTR stoichiometric ratio in vitreous and CSF” value is on record as ≤ 1. In data set [2] (vitreous), the “tafamidis level in vitreous relative to that in plasma” value was 0.5%.
As to `O=C(OCCCn1ccnc1)c1ccc2nc(-c3cc(Cl)cc(Cl)c3)oc2c1` [Compound 117], the “Tafamidis CSF/Plasma Ratio over 24 hrs (po)” value in data set [1] is recorded as “B (B is ≥0.015 to <0.02)”. Moreover, in data set [3], the “Formation of tafamidis at 120 min” value is recorded as “B (B is ≥25 to <50%)”. The “Formation of tafamidis at 60 min” value in data set [4] is given as “D (D is ≥75%)”.
The matching figures for `O=C(NCC(F)F)c1ccc2nc(-c3cc(Cl)cc(Cl)c3)oc2c1` [Compound 66, 2-(3,5-dichlorophenyl)-N-(2,2-difluoroethyl)benzo[d]oxazole-6-carboxamide]: “C (C is ≥0.02)”, “A (A is <25%)” and “A (A is <25%)”.
For `CC(OC(=O)c1ccc2nc(-c3cc(Cl)cc(Cl)c3)oc2c1)C1CCOC1` (stereo not shown) [Compound 161] the same measures were “A (A is < 0.015)”, “B (B is ≥25 to <50%)” and “B (B is ≥25 to <50%)”.
Regarding `O=C(OCCN1CCS(=O)(=O)CC1)c1ccc2nc(-c3cc(Cl)cc(Cl)c3)oc2c1` [Compound 79], in data set [1], the “Tafamidis CSF/Plasma Ratio over 24 hrs (po)” value is listed as “A (A is < 0.015)”. Moreover, the “Formation of tafamidis at 120 min” value in data set [3] is “B (B is ≥25 to <50%)”. For the same molecule, the “Formation of tafamidis at 60 min” value in data set [4] is “C (C is ≥50 to <75%)”.
As to `O=C(OCc1ncccn1)c1ccc2nc(-c3cc(Cl)cc(Cl)c3)oc2c1` [Compound 102], the “Tafamidis CSF/Plasma Ratio over 24 hrs (po)” value in data set [1] is listed as “A (A is < 0.015)”. In addition, in data set [3], the “Formation of tafamidis at 120 min” value was “B (B is ≥25 to <50%)”. Moreover, in data set [4], the “Formation of tafamidis at 60 min” value is “C (C is ≥50 to <75%)”.
Regarding `CC(CN(C)C)OC(=O)c1ccc2nc(-c3cc(Cl)cc(Cl)c3)oc2c1` (single isomer, unassigned) [Compound 47, (R*)-1-(dimethylamino)propan-2-yl 2-(3,5-dichlorophenyl)benzo [d] oxazole-6-carboxylate], the “Tafamidis CSF/Plasma Ratio over 24 hrs (po)” value in data set [1] is on record as “A (A is < 0.015)”. In addition, in data set [3], the “Formation of tafamidis at 120 min” value was “D (D is ≥75%)”. The “Formation of tafamidis at 60 min” value in data set [4] is “A (A is <25%)”.
The matching figures for `O=C(OCCN1CCNCC1)c1ccc2nc(-c3cc(Cl)cc(Cl)c3)oc2c1` [Compound 82]: “A (A is < 0.015)”, “A (A is <25%)” and “A (A is <25%)”.
The matching figures for `O=C(OC1CCCN(CC(F)F)C1)c1ccc2nc(-c3cc(Cl)cc(Cl)c3)oc2c1` (stereo not shown) [Compound 167, 1-(2,2-difluoroethyl)piperidin-3-yl 2-(3,5-dichlorophenyl)benzo[d]oxazole-6-carboxylate]: “A (A is < 0.015)”, “C (C is ≥50 to <75%)” and “C (C is ≥50 to <75%)”.
On to `CN1CCC(OC(=O)c2ccc3nc(-c4cc(Cl)cc(Cl)c4)oc3c2)C1` (stereo not shown) [Compound 7, 1-methylpyrrolidin-3-yl 2-(3,5-dichlorophenyl)benzo[d]oxazole-6-carboxylate], for which the “Tafamidis CSF/Plasma Ratio (iv)” value in data set [1] (iv administration of test compound) is listed as “C (C is ≥0.02)”. Besides, the “Tafamidis CSF/Plasma Ratio over 24 hrs (po)” value in data set [1] is reported as “C (C is ≥0.02)”. Also, the “Formation of tafamidis at 120 min” value in data set [3] is given as “D (D is ≥75%)”. The “Formation of tafamidis at 60 min” value in data set [4] is “A (A is <25%)”.
`O=C(OCC1CCOC1)c1ccc2nc(-c3cc(Cl)cc(Cl)c3)oc2c1` (stereo not shown) [Compound 85]: the “Tafamidis CSF/Plasma Ratio over 24 hrs (po)” value in data set [1] is given as “B (B is ≥0.015 to <0.02)”. For the same molecule, the “Formation of tafamidis at 120 min” value in data set [3] is listed as “C (C is ≥50 to <75%)”. For the same molecule, the “Formation of tafamidis at 60 min” value in data set [4] was “C (C is ≥50 to <75%)”.
With `O=C(OC1CCN(CC(F)(F)F)C1)c1ccc2nc(-c3cc(Cl)cc(Cl)c3)oc2c1` (stereo not shown) [Compound 151], the “Tafamidis CSF/Plasma Ratio over 24 hrs (po)” value in data set [1] is “B (B is ≥0.015 to <0.02)”. Moreover, the “Formation of tafamidis at 120 min” value in data set [3] is “A (A is <25%)”. Also, the “Formation of tafamidis at 60 min” value in data set [4] is on record as “D (D is ≥75%)”.
